Results from patent publication US7045528B2, “Benzofused heterozryl amide derivatives of thienopyridines useful as therapeutic agents, pharmaceutical compositions including the same, and methods for their use” (Agouron Pharmaceuticals, Inc., priority 2002, dated 2006).

Key:
[1] = test system: human umbilical vein endothelial cells (HUVEC); assay: HUVEC+VEGF proliferation assay; format: cell-based; settings: Homo sapiens, HUVEC; VEGF 6 ng/mL, 72 h, MTT
In short: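 Exponentially growing passage 3–4 HUVEC were starved 24 h in F12K + 1% FBS, given compound (0.1% final DMSO) 1 h before 6 ng/mL final VEGF, then cultured 72 h. Proliferation was read as MTT dye reduction (4 h exposure), absorbance at 595 nm.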

[2] = test system: Huvec; assay: bFGF Huvec proliferation; format: cell-based, human; settings: Homo sapiens, HUVEC
[3] = target: T1, unphosphorylated VEGF-R2Δ50 (FLVK) (Homo sapiens, UniProt P35968, DEL940-989/E990V); assay: VEGF-R2 coupled spectrophotometric assay, unphosphorylated VEGF-R2Δ50 (FLVK); format: biochemical; settings: unphosphorylated VEGF-R2Δ50; for inhibition at 0.05 µM: 50 nM compound, read-out: FLVK (% inh @ 50 nM)
T1 construct: VEGF-R2Δ50 contains residues 806–939 and 990–1171; made in house; host or cells: baculovirus/insect cell system
T1 sequence (P35968 with tags, fused parts or gaps DEL940-989/E990V limits assumed): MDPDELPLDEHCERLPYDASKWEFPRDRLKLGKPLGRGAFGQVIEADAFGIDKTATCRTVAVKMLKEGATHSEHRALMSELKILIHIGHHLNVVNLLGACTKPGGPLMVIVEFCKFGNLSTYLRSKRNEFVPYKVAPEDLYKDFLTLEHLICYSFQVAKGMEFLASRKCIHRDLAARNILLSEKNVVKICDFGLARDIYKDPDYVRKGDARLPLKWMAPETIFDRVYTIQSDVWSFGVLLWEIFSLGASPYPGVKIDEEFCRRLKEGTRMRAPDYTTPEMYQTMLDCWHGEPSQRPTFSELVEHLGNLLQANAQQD
In short: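 Ki obtained by Morrison-equation fitting of activity at varied compound levels; reaction started with 5–40 nM enzyme. Non-autophosphorylated kinase construct (insect cell-expressed) with 3 mM ATP, 20 mM poly(E4Y1), 60 mM MgCl2 plus 2 mM MnCl2, pH 7.5 HEPES; NADH loss at 340 nm via PK/LDH coupling.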

[4] = target: T2, KDR (VEGFR2) (Homo sapiens, UniProt P35968); assay: KDR (VEGFR2) phosphorylation in PAE-KDR cells assay; format: cell-based; settings: PAE cells overexpressing human KDR, VEGF stimulated; read-out: PAE KDR autophos IC50 (nM) AVG
T2 construct: expressed in transfected cells; host or cells: porcine aorta endothelial (PAE)-KDR cells
T2 sequence (P35968 20-1356): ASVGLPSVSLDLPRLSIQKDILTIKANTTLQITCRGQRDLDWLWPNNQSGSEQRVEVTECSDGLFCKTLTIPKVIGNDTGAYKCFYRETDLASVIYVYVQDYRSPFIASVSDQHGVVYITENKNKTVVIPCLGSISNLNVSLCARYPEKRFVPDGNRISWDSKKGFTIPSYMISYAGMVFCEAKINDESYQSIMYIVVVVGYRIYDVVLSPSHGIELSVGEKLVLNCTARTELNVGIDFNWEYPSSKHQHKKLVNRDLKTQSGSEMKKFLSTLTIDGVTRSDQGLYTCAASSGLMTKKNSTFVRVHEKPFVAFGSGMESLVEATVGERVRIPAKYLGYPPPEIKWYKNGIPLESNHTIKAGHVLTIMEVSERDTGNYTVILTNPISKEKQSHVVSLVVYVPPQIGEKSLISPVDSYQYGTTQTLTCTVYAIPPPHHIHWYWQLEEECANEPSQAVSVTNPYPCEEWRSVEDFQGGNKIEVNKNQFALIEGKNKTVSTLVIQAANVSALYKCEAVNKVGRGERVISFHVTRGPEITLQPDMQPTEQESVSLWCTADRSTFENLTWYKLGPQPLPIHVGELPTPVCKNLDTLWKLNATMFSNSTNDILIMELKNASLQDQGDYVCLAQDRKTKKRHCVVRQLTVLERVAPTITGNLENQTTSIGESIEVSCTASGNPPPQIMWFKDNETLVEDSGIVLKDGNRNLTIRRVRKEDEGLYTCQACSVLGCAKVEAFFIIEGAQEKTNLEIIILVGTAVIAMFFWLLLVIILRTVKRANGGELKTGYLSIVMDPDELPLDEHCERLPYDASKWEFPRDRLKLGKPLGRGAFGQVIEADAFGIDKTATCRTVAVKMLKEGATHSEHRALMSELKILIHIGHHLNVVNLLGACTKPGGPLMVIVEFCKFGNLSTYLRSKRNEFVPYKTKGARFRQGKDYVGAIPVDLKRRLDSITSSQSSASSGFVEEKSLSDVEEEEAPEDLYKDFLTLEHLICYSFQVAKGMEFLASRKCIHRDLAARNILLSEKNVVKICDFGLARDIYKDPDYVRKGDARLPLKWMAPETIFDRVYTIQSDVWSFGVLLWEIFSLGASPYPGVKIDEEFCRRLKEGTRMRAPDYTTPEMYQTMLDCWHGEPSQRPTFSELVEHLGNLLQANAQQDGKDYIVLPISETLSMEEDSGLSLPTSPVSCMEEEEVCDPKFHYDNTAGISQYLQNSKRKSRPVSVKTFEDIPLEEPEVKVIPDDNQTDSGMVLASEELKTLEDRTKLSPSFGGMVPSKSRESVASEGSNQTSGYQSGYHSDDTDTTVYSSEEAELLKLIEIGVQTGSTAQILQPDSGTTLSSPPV
Protocol: KDR (VEGFR2) Phosphorylation in PAE-KDR Cells Assay
This assay determines the ability of a test compound to inhibit the autophosphorylation of KDR in porcine aorta endothelial (PAE)-KDR cells. PAE cells that overexpress human KDR were used in this assay. The cells were cultured in Ham's F12 media supplemented with 10% fetal bovine serum (FBS) and 400 ug/mL G418. Thirty thousands cells were seeded into each well of a 96-well plate in 75 μL of growth media and allowed to attach for 6 hours at 37° C. Cells were then exposed to the starvation media (Ham's F12 media supplemented with 0.1% FBS) for 16 hours. After the starvation period was over, 10 μL of test agent in 5% DMSO in starvation media were added to the test wells and 10 μL of the vehicle (5% DMSO in starvation media) were added into the control wells. The final DMSO concentration in each well was 0.5%. Plates were incubated at 37° C. for 1 hour and the cells were then stimulated with 500 ng/ml VEGF (commercially available from R & D System) in the presence of 2 mM Na3VO4 for 8 minutes. The cells were washed once with 1 mm Na3VO4 in HBSS and lysed by adding 50 μL per well of lysis buffer. One hundred μL of dilution buffer were then added to each well and the diluted cell lysate was transferred to a 96-well goat ant-rabbit coated plate (commercially available from Pierce) which was pre-coated with Rabbit anti Human Anti-flk-1 C-20 antibody (commercially available from Santa Cruz). The plates were incubated at room temperature for 2 hours and washed seven times with 1% Tween 20 in PBS. HRP-PY20 (commercially available from Santa Cruz) was diluted and added to the plate for a 30-minute incubation. Plates were then washed again and TMB peroxidase substrate (commercially available from Kirkegaard & Perry) was added for a 10-minute incubation. One hundred μL of 0.09 N H2SO4 was added to each well of the 96-well plates to stop the reaction. Phosphorylation status was assessed by spectrophotometer reading at 450 nm. IC50 values were calculated by curve fitting using a four-parameter analysis.

inhibition at 0.05 µM [3] [%] | Ki [3] [nM] | IC50 [4] [nM] | SMILES | IC50 [1] [nM] | IC50 [2] [nM]
77 | 2.77 | 0.47 | CNC(=O)c1c(C)n(C)c2cc(Oc3ccnc4cc(-c5nccn5C)sc34)ccc12 [Example 17, 1,2-dimethyl-6-(2-[1-methyl-1H-imidazol-2-yl]thieno[3,2-b]pyridin-7-yloxy)-1H-indole-3-carboxylic acid methylamide] | 1.2 | 847
78 | 2.37 | 0.62 | CNC(=O)c1c(C)n(C)c2cc(Oc3ccnc4cc(C(=O)N5CC[C@@H](OC)C5)sc34)ccc12 [Example 18, 1,2-dimethyl-6-(2-[3-methoxy-pyrrolidine-1-carbonyl]thieno[3,2-b]pyridin-7-yloxy)-1H-indole-3-carboxylic acid methylamide] | 0.64 | 1000
97 | 0.322 | 0.21 | CNC(=O)c1c(C)oc2cc(Oc3ccnc4cc(-c5nccn5C)sc34)ccc12 [Example 13] | 0.082 | 27
91 | 0.57 | 0.24 | CCCCNC(=O)c1c(C)n(C)c2cc(Oc3ccnc4cc(-c5nccs5)sc34)ccc12 [Example 62, 1,2-Dimethyl-6-(2-thiazol-2-yl-thieno[3,2-b]pyridin-7-yloxy)-1H-indole-3-carboxylic acid butylamide] | 2.15 | 619
75 | 2.63 | 1.7 | CNC(=O)c1c(C)n(C)c2cc(Oc3ccnc4cc(C(=O)N5CC[C@@H](O)C5)sc34)ccc12 [Example 19, 1,2-dimethyl-6-(2-[3-hydroxy-pyrrolidine-1-carbonyl]thieno[3,2-b]pyridin-7-yloxy)-1H-indole-3-carboxylic acid methylamide] | 2.7 | 10000
99 | 0.082 | 0.217 | Cc1c(C(=O)NC2CC2)c2ccc(Oc3ccnc4cc(-c5nccn5C)sc34)cc2n1C [Example 20, 1,2-Dimethyl-6-[2-(1-methyl-1H-imidazol-2-yl)-thieno[3,2-b]pyridin-7-yloxy]-1H-indole-3-carboxylic acid cyclopropylamide] | 0.19 | 1900
89 | – | 0.4 | CCCNC(=O)c1c(C)n(C)c2cc(Oc3ccnc4cc(-c5nccn5C)sc34)ccc12 [Example 61, 1,2-Dimethyl-6-[2-(1-methyl-1H-imidazol-2-yl)thieno[3,2-b]pyridin-7-yloxy]-1H-indole-3-carboxylic acid propylamide] | 0.605 | 4000

Second part, the compound before the results:

SMILES | inhibition at 0.05 µM [3] [%] | Ki [3] [nM] | IC50 [4] [nM] | IC50 [1] [nM] | IC50 [2] [nM]
CNC(=O)c1c(C)sc2cc(Oc3ccnc4cc(-c5nccn5C)sc34)ccc12 [Example 1, 2-methyl-6-(2-[1-methyl-1H-imidazol-2-yl]thieno[3,2-b]pyridin-7-yloxy)benzo[b]thiophene-3-carboxylic acid methylamide] | 92 | 1.02 | 0.31 | 0.68 | 122
CNC(=O)c1c(C)sc2cc(Oc3ccnc4cc(C(=O)N5CCC[C@H]5CO)sc34)ccc12 [Example 3] | 59 | 0.811 | 0.9 | 0.442 | 942
CNC(=O)c1c(C)sc2cc(Oc3ccnc4cc(C(=O)N5CC[C@@H](O)C5)sc34)ccc12 [Example 6, 6-(2-[(R)-3-hydroxypyrrolidine-1-carbonyl]thieno[3,2-b]pyridin-7-yloxy)-2-methylbenzo[b]thiophene-3-carboxylic acid methylamide] | 94 | 0.721 | – | 1.2 | 145
CNC(=O)c1c(C)sc2cc(Oc3ccnc4cc(C(=O)N5CCC[C@H]5COC)sc34)ccc12 [Example 2, 6-(2-[(S)-2-(methoxymethyl)pyrrolidine-1-carbonyl]thieno[3,2-b]pyridin-7-yloxy)-2-methylbenzo[b]thiophene-3-carboxylic acid methylamide] | 75 | 4.14 | 1.8 | 2.3 | 3330
CNC(=O)c1c(C)oc2cc(Oc3ccnc4cc(C(=O)N5CC[C@@H](OC)C5)sc34)ccc12 [Example 12, 6-(2-[3-methoxypyrrolidine-1-carbonyl]thieno[3,2-b]pyridin-7-yloxy)-2-methylbenzofuran-3-carboxylic acid methylamide] | 100 | 0.314 | 0.14 | 0.26 | 20
CNC(=O)c1c(C)sc2cc(Oc3ccnc4cc(C(=O)N5CC[C@@H](OC)C5)sc34)ccc12 [Example 4, 6-(2-[(R)-3-methoxypyrrolidine-1-carbonyl]thieno[3,2-b]pyridin-7-yloxy)-2-methylbenzo[b]thiophene-3-carboxylic acid methylamide] | 88 | 2.58 | 0.47 | 0.404 | –
